Experimental findings from ChEMBL document CHEMBL5532658 (Eur J Med Chem, 2024) are described below.

Data set [1] concerns the target T1, Dual specificity mitogen-activated protein kinase kinase 5 (Homo sapiens) (UniProt Q13163).
T1 sequence (whole entry): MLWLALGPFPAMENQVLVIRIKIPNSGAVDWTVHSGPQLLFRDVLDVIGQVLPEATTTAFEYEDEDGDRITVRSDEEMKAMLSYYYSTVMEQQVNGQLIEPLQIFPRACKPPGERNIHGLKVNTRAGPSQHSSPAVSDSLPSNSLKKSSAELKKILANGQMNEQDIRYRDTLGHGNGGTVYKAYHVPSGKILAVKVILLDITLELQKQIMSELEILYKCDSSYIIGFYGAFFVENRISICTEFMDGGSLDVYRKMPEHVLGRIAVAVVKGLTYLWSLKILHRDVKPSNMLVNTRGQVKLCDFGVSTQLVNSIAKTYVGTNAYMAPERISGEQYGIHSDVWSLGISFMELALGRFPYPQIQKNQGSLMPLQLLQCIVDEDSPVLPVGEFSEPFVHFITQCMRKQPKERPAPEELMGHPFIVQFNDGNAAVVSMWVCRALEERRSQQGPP
Nature of the data set: Inhibition of MAP2K5 (unknown origin) assessed as remaining activity at 1 uM by discoverX kinomescan assay relative to control.

For data set [2], the system named is MDA-MB-453. Nature of the data set: Downregulation of Rb protein phosphorylation at Ser608 in human MDA-MB-453 cells incubated for 24 hrs by Western blot analysis. The data set is classed as functional, cell-based. The settings on record: dose 37-333 nM. (A western blot detects proteins with antibodies after separation by electrophoresis.)
Data set [3] deals with MDA-MB-453. As to the kind of experiment: Downregulation of Rb protein phosphorylation at Ser780 in human MDA-MB-453 cells incubated for 24 hrs by Western blot analysis. The conditions noted are these: dose 37-333 nM. In kind it is functional, cell-based.
For data set [4], the system named is MDA-MB-453. Nature of the data set: Induction of cell cycle arrest in human MDA-MB-453 cells assessed as G0/G1 phase arrest at 12.3 to 1000 nM incubated for 24 hrs by PI staining based flow cytometry analysis. The conditions noted are these: dose 12.3-1000 nM. In kind it is functional. For orientation: In flow cytometry, cells or beads pass a laser one at a time.

Data set [5] has as its system MDA-MB-231. Nature of the data set: Downregulation of Rb protein phosphorylation at Thr826 in human MDA-MB-231 cells incubated for 24 hrs by Western blot analysis. The conditions noted are these: dose 37-333 nM. In kind it is functional, cell-based.
The subject of data set [6] is MDA-MB-231. As to the kind of experiment: Downregulation of Rb protein phosphorylation at Ser795 in human MDA-MB-231 cells incubated for 24 hrs by Western blot analysis. The conditions noted are these: dose 37-333 nM. The data set is classed as functional, cell-based.
In data set [7] the target is Cyclin-dependent kinase 18 (Homo sapiens) (UniProt Q07002). As to the kind of experiment: Inhibition of CDK18 (unknown origin) at 1 uM by discoverX kinomescan assay.
Chain of Cyclin-dependent kinase 18 (Homo sapiens) (Q07002 whole entry): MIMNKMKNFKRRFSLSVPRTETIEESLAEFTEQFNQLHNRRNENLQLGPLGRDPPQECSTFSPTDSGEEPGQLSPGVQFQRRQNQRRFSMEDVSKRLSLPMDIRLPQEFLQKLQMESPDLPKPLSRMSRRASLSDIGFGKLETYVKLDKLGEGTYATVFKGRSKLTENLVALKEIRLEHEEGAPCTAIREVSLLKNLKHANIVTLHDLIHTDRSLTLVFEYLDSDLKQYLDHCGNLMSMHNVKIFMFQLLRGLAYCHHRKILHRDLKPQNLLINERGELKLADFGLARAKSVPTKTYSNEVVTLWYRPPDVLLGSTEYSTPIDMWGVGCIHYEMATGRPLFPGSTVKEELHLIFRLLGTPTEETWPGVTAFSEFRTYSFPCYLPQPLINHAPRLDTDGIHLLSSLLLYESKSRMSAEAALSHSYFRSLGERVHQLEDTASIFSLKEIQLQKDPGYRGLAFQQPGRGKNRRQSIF
In data set [8] the test system is MDA-MB-453. As to the kind of experiment: Antiproliferative activity against human MDA-MB-453 cells incubated for 120 hrs by CCK-8 assay. In kind it is functional, cell-based. The conditions noted are these: MDA-MB-453, 120 h. For orientation: Tetrazolium dyes change colour on reduction, which living cells bring about.
Data set [9] concerns MDA-MB-453. As to the kind of experiment: Downregulation of Rb protein phosphorylation at Thr826 in human MDA-MB-453 cells incubated for 24 hrs by Western blot analysis. The data set is classed as functional, cell-based. The conditions noted are these: dose 37-333 nM.
Data set [10] concerns the target T2, Cyclin-dependent kinase-like 5 (Homo sapiens) (UniProt O76039).
T2 sequence (whole entry): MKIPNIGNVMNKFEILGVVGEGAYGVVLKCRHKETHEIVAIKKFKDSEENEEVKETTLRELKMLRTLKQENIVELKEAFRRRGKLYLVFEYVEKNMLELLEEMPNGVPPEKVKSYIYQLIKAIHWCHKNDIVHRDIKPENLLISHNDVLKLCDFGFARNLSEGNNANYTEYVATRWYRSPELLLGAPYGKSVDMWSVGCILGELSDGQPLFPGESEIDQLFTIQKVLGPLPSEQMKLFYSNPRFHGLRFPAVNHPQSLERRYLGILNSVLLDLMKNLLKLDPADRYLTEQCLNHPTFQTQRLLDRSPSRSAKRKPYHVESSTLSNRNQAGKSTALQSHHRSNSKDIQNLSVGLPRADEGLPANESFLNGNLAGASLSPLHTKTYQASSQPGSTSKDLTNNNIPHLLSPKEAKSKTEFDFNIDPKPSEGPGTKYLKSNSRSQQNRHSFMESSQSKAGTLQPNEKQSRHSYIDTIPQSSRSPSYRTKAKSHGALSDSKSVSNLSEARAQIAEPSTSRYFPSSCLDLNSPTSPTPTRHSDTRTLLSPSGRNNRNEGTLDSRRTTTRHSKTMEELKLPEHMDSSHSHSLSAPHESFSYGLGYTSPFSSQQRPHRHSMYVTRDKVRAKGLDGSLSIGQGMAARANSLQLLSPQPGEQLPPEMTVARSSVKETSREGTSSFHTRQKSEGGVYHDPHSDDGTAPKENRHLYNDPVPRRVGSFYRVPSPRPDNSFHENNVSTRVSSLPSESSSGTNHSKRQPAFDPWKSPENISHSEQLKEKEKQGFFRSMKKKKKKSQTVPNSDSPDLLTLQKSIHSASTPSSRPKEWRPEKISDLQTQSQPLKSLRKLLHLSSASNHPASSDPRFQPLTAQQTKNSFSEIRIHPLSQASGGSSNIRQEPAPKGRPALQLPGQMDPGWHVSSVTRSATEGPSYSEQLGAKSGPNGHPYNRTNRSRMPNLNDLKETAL
As to the kind of experiment: Inhibition of CDKL5 (unknown origin) at 1 uM by discoverX kinomescan assay.

Data set [11] in a line: Cmax in CD1 mouse at 10 mg/kg, po measured upto 24 hrs by LC-MS/MS analysis. The data set is classed as ADME, organism-based. The settings on record: in vivo.
Data set [12] concerns MDA-MB-231. Nature of the data set: Downregulation of Rb protein phosphorylation at Ser807 in human MDA-MB-231 cells incubated for 24 hrs by Western blot analysis. In kind it is functional, cell-based. The settings on record: dose 37-333 nM.
Data set [13] relates to MDA-MB-231. As to the kind of experiment: Antiproliferative activity against human MDA-MB-231 cells incubated for 120 hrs by CCK-8 assay. In kind it is functional, cell-based. The conditions noted are these: MDA-MB-231, 120 h.
Data set [14] can be described thus: AUC(0 to t) in CD1 mouse at 10 mg/kg, po measured upto 24 hrs by LC-MS/MS analysis. The data set is classed as ADME, organism-based. The settings on record: in vivo.
The subject of data set [15] is MDA-MB-231. As to the kind of experiment: Downregulation of Rb protein phosphorylation at Thr821 in human MDA-MB-231 cells incubated for 24 hrs by Western blot analysis. The data set is classed as functional, cell-based. The settings on record: dose 37-333 nM.

pEC50: −log10 of the molar value. Active and inactive are the calls of the source. The calls are words filed in the database; no cut-off is given here.

On to `CP(C)(=O)c1c(C#N)ccc2c(-c3nc(N[C@@H]4CNC[C@@H](F)C4)nc4ccsc34)c[nH]c12`, for which the Activity in data set [1] is under 1%; with MDA-MB-453 [2], “Dose-Dependent Effect”; with MDA-MB-453 [3], “Dose-Dependent Effect”; in the data set on MDA-MB-231 [5], “Dose-Dependent Effect”; with MDA-MB-231 [6], “Dose-Dependent Effect”; in the data set with MDA-MB-453 [9], “Dose-Dependent Effect”. The Activity entry in the data set on MDA-MB-231 [12] and with MDA-MB-231 [15] was “Dose-Dependent Effect” each time. Also, the result in the data set on MDA-MB-453 [4] was Active. In addition, the inhibition entry in data set [7] and in data set [10] was “inactive” throughout. Besides, the negative-log EC50 (pEC50) (as a rule, −log10 of the EC50, conventionally taken in molar units) is 6.82 in the data set with MDA-MB-453 [8] and 6.49 in the data set with MDA-MB-231 [13]. Moreover, the Cmax (in general, the peak of the concentration-time curve) in [11] is 117 ng/mL. In addition, the AUC(0-t) (usually the area under the concentration-time curve up to a stated or last time point) at 24 h in data set [14] worked out at 513 ng·h/mL.
